Results from PMC10108266, “Pharmacokinetic characteristics of golidocitinib, a highly selective JAK1 inhibitor, in healthy adult participants” (Frontiers in Immunology, 2023).
Like-named read-outs stand apart in the source and are kept apart here.

Assay: Pooled JACKPOT2/JACKPOT3 SAD analysis of the effect of race on PK
Format: in vivo, human
Settings: for Dose normalized AUC0-inf, GLS Mean / Dose normalized AUC0-t, GLS Mean / Dose normalized Cmax, GLS Mean: ANCOVA; for Vd/F / half-life: human, plasma, oral
Method: Assessment of inter-ethnic difference of golidocitinib PK: The primary analyses of AUC0–t, AUC0–inf, and Cmax (log-transformed dose-normalized PK parameters) were performed using an analysis of covariance (ANCOVA) model, with the ethnic group as a fixed effect and dose (log scale) as a covariate. The analysis of variance (ANOVA) model was built for the secondary PK endpoints (log-transformed CL/F, Vz/F, and t1/2) with the ethnic group as a fixed effect. The Black/Caucasian and Asian/Caucasian ratios of the geometric mean were calculated by taking the antilogarithm of the difference between group means and corresponding 90% confidence intervals (CIs) in the log scale. Other analyses are descriptive, and no formal statistical comparison is performed for pooled JACKPOT2 and JACKPOT3 data. As the study design of SAD cohorts in JACKPOT2 and JACKPOT3 studies was similar, pooled analysis was performed. The race factor is the focus potentially used for the exposure comparison. A total of 62 participants were included in the analysis (11 Caucasians, 19 Blacks and 32 Asians).

SMILES: COc1nn(C)cc1Nc1nccc(-c2c[nH]c3c(NC(=O)[C@@H](C)N4CCN(C)CC4)cccc23)n1 [golidocitinib, (2R)-N-[3-[2-[(3-Methoxy-1-methyl-pyrazol-4-yl)amino]pyrimidin-4-yl]-1H-indol-7-yl]-2-(4-methylpiperazin-1-yl)propenamide]
- CL/F, Geometric Mean (CV%) (Asian, n 24, single dose): 20.07 (21.59) L/hr
- Dose normalized AUC0-inf, Geometric Mean (CV%) (Asian, n 24, single dose): 49.82 (21.63) hr*ng/mL/mg
- Dose normalized AUC0-t, Geometric Mean (CV%) (Asian, n 24, single dose): 48.15 (23.34) hr*ng/mL/mg
- Dose normalized Cmax, Geometric Mean (CV%) (Asian, n 24, single dose): 1.70 (24.14) ng/mL/mg
- Dose normalized AUC0-inf, GLS Mean (Asian, single dose): 49.76 ng·h/mL/mg
- Dose normalized AUC0-t, GLS Mean (Asian, single dose): 47.50 ng·h/mL/mg
- Dose normalized Cmax, GLS Mean (Asian, single dose): 1.66 ng/mL/mg
- CL/F, GLS Mean (Asian, single dose, ANOVA): 20.07 L/h
- CL/F, Ratio of GLS means (Asian/Caucasian): 0.88
- Dose normalized AUC0-inf, Ratio of GLS means (Asian/Caucasian): 1.2
- Dose normalized AUC0-t, Ratio of GLS means (Asian/Caucasian): 1.1
- Dose normalized Cmax, Ratio of GLS means (Asian/Caucasian): 1.4
- Vz/F, Ratio of GLS means (Asian/Caucasian): 0.76
- t1/2, Ratio of GLS means (Asian/Caucasian): 0.87
- Dose normalized AUC0-inf, Geometric Mean (CV%) (Black, n 10 (5 mg group not included), single dose): 51.54 (22.55) hr*ng/mL/mg
- CL/F, Geometric Mean (CV%) (Black, n 10, single dose): 19.40 (22.55) L/hr
- Dose normalized AUC0-t, Geometric Mean (CV%) (Black, n 13, single dose): 46.51 (23.98) hr*ng/mL/mg
- Dose normalized Cmax, Geometric Mean (CV%) (Black, n 13, single dose): 1.12 (26.07) ng/mL/mg
- Dose normalized AUC0-inf, GLS Mean (Black, single dose): 52.05 ng·h/mL/mg
- Dose normalized AUC0-t, GLS Mean (Black, single dose): 47.72 ng·h/mL/mg
- Dose normalized Cmax, GLS Mean (Black, single dose): 1.19 ng/mL/mg
- CL/F, GLS Mean (Black, single dose, ANOVA): 19.40 L/h
- CL/F, Ratio of GLS means (Black/Caucasian): 0.85
- Dose normalized AUC0-inf, Ratio of GLS means (Black/Caucasian): 1.2
- Dose normalized AUC0-t, Ratio of GLS means (Black/Caucasian): 1.1
- Dose normalized Cmax, Ratio of GLS means (Black/Caucasian): 1.0
- Vz/F, Ratio of GLS means (Black/Caucasian): 1.1
- t1/2, Ratio of GLS means (Black/Caucasian): 1.3
- Dose normalized AUC0-inf, Geometric Mean (CV%) (Caucasian, n 6 (5 mg group not included), single dose): 43.62 (23.48) hr*ng/mL/mg
- CL/F, Geometric Mean (CV%) (Caucasian, n 6, single dose): 22.92 (23.48) L/hr
- Dose normalized AUC0-t, Geometric Mean (CV%) (Caucasian, n 7, single dose): 42.59 (28.57) hr*ng/mL/mg
- Dose normalized Cmax, Geometric Mean (CV%) (Caucasian, n 7, single dose): 1.17 (30.17) ng/mL/mg
- Dose normalized AUC0-inf, GLS Mean (Caucasian, single dose): 43.13 ng·h/mL/mg
- Dose normalized AUC0-t, GLS Mean (Caucasian, single dose): 42.52 ng·h/mL/mg
- Dose normalized Cmax, GLS Mean (Caucasian, single dose): 1.16 ng/mL/mg
- CL/F, GLS Mean (Caucasian, single dose, ANOVA): 22.92 L/h
- Vd/F (Asian, n 24, single dose, read-out: Vz/F, Geometric Mean (CV%)): 1020 L
- half-life (Asian, n 24, single dose, read-out: t1/2, Geometric Mean (CV%) (converted)): 35.4 h
- Vd/F (Asian, single dose, ANOVA, read-out: Vz/F, GLS Mean): 1020 L
- half-life (Asian, single dose, ANOVA, read-out: t1/2, GLS Mean (converted)): 35.4 h
- Vd/F (Black, n 10, single dose, read-out: Vz/F, Geometric Mean (CV%)): 1420 L
- half-life (Black, n 10, single dose, read-out: t1/2, Geometric Mean (CV%) (converted)): 50.9 h
- Vd/F (Black, single dose, ANOVA, read-out: Vz/F, GLS Mean): 1420 L
- half-life (Black, single dose, ANOVA, read-out: t1/2, GLS Mean (converted)): 50.9 h
- Vd/F (Caucasian, n 6, single dose, read-out: Vz/F, Geometric Mean (CV%)): 1350 L
- half-life (Caucasian, n 6, single dose, read-out: t1/2, Geometric Mean (CV%) (converted)): 40.8 h
- Vd/F (Caucasian, single dose, ANOVA, read-out: Vz/F, GLS Mean): 1350 L
- half-life (Caucasian, single dose, ANOVA, read-out: t1/2, GLS Mean (converted)): 40.8 h
